Measurements published in PMC9926234, “Iterative computational design and crystallographic screening identifies potent inhibitors targeting the Nsp3 macrodomain of SARS-CoV-2” (Proceedings of the National Academy of Sciences of the …, 2023).
Read-outs that look alike come from different tables or passages of the source.

Assays:
[1] = molecular target: T1, SARS-CoV-2 NSP3 Mac1 (Severe acute respiratory syndrome coronavirus 2, UniProt P0DTD1); test: biochemical; type: binding; details: for IC50: HTRF ADPr-conjugated peptide displacement, read-out: IC50; for Ki: read-out: Ki***
[2] = tested on: SARS-CoV-2 NSP3 Mac1; test: Overall hit call (binding in crystallographic soaking or the HTRF-based binding assay)
Description: Supplement pnas.2212931120.sd01.xlsx, sheet "Compound Summary" | column: HIT*

[3] = molecular target: T1, SARS-CoV-2 NSP3 Mac1; type: binding; details: for Refined occupancy: ligand occupancy after refinement (phenix.refine); for Comment (ligand modelled in the crystal structure): what was observed in density instead of the vendor structure
[4] = PanDDA 1-BDC of the event, compound stock 100 mM, Echo dispense volume 80 nl
[5] = PanDDA event map 1-BDC, crystal soak, Compound_concentration 100 mM, PanDDA run dmso_34 or nohits_35 per dataset
[6] = PanDDA event map, 1 minus background density correction, crystal soaking of Mac1
[7] = crystal soak, Compound_concentration 100 mM, Echo dispense 40 nl, PanDDA run dmso_34 or nohits_35 per dataset
[8] = crystal soak, compound stock 100 mM, Echo dispense volume 80 nl
[9] = PanDDA 1-BDC of the event, compound stock 100 mM, Echo dispense volume 40 nl
[10] = crystal soak, compound stock 100 mM, Echo dispense volume 40 nl
[11] = ligand modeled in structure, compound stock 100 mM, Echo dispense volume 80 nl
[12] = ligand modeled in this dataset, crystal soak, Compound_concentration 100 mM
[13] = ligand modeled from this dataset, compound concentration 100 mM

SMILES | HIT* [2] | 1-BDC [3, 4] | 1-BDC (PanDDA) [3, 6] | PanDDA hit? [3, 8] | Refined occupancy ([3]; crystal soaking of Mac1) | other results
O=C(O)[C@H]1[C@@H]2CN(c3ncnc4[nH]c5cc(F)ccc5c34)CC[C@@H]21 [LL114_0037] | Y | – | – | – | – | IC50 [1]: 37.6 µM; Ki [1]: 32.7 µM
COC(=O)CC1CN(c2ncnc3[nH]c4cc(F)ccc4c23)CCO1 (stereo not shown) [LL114_0040] | Y | 0.08 | 0.08 | TRUE | 16 | 1-BDC [3, 5]: 0.11; 1-BDC ([3]; PanDDA event map, crystal soak, Compound_concentration 100 mM, Echo_dispense_volume 40 nl): 0.08; PanDDA hit? [3, 7]: TRUE; PanDDA hit? ([3]; crystal soak, Compound_concentration 100 mM, Echo_dispense_volume 40 nl, PanDDA run (background map) dmso_34, nohits_35 or nohits_62): TRUE; Modeled? ([3]; ligand modeled, crystal soak, Compound_concentration 100 mM, Echo_dispense_volume 40 nl): TRUE
O=S1(=O)CC(CNc2ncnc3[nH]c4cc(F)ccc4c23)C1 [LRH-0005] | Y | 0.1 | 0.1 | TRUE | 20 | 1-BDC [3, 9]: 0.1; PanDDA hit? [3, 10]: TRUE; Modeled? [3, 11]: TRUE
O=S1(=O)CCC1CNc1ncnc2[nH]c3cc(F)ccc3c12 (stereo not shown) [LRH-0012] | Y | 0.06 | 0.07 | TRUE | 14 | 1-BDC [3, 5]: 0.07; PanDDA hit? [3, 7]: TRUE; Modeled? [3, 12]: TRUE
O[C@@H]1CC[C@H](Nc2ncnc3[nH]c4cc(F)ccc4c23)C1 [LRH-0018] | Y | 0.07 | 0.07 | TRUE | 14 | 1-BDC [3, 5]: 0.07; PanDDA hit? [3, 7]: TRUE; Modeled? [3, 12]: TRUE
O=C(O)[C@@H]1CCC[C@H](Nc2ncnc3[nH]c4cc(F)ccc4c23)C1 [LRH-0022] | Y | 0.32 | 0.32 | TRUE | 64 | 1-BDC [3, 9]: 0.28; PanDDA hit? [3, 10]: TRUE; Modeled? [3, 11]: TRUE; Comment (ligand modelled in the crystal structure) [3]: pyrimido-indole core only
[O-][n+]1cccc(Nc2ncnc3[nH]c4cc(F)ccc4c23)c1 [LRH-0031] | Y | 0.17 | 0.17 | TRUE | 34 | 1-BDC [3, 9]: 0.18; PanDDA hit? [3, 10]: TRUE; Modeled? [3, 11]: TRUE; Comment (ligand modelled in the crystal structure) [3]: pyrimido-indole core only
CN(c1ncnc2[nH]c3cc(F)ccc3c12)C1CCCS(=O)(=O)C1 (stereo not shown) [LRM-0010] | Y | 0.06 | 0.06 | TRUE | 12 | Modeled? [3, 11]: TRUE
CN(Cc1ccccn1)c1ncnc2[nH]c3cc(F)ccc3c12 [LRM-0028] | Y | 0.15 | 0.15 | TRUE | 30 | 1-BDC [3, 9]: 0.14; PanDDA hit? [3, 10]: TRUE; Modeled? [3, 11]: TRUE
O=S1(=O)CC(CNc2ncnc3[nH]ccc23)C1 [SRH-0005] | Y | – | – | – | 18 | 1-BDC [3, 6]: 0.09; Modeled? [3, 13]: TRUE
O=S1(=O)CCCC(Nc2ncnc3[nH]ccc23)C1 (stereo not shown) [SRH-0010] | Y | – | 0.13 | – | 26 | 1-BDC [3, 5]: 0.13; PanDDA hit? [3, 7]: TRUE; Modeled? [3, 12]: TRUE
O[C@@H]1CC[C@H](Nc2ncnc3[nH]ccc23)C1 [SRH-0018] | Y | – | – | – | 14 | 1-BDC [3, 6]: 0.07; Modeled? [3, 13]: TRUE
c1ccc(CNc2ncnc3[nH]ccc23)nc1 [SRH-0028] | Y | – | 0.09 | – | 18 | 1-BDC [3, 5]: 0.09; PanDDA hit? [3, 7]: TRUE; Modeled? [3, 12]: TRUE
CCC(=O)Nc1nc(C)c(S(=O)(=O)Nc2cccc(C#N)c2)s1 [Z0611] | Y | – | – | – | – | IC50 [1]: 143 µM; Ki [1]: 124 µM
O=C(O)CC1CC(CNC(=O)c2cncc3sccc23)C1 (stereo not shown) [Z1558] | Y | – | – | – | – | –
CC(Cc1ccco1)C(=O)N[C@@H](CC(=O)O)c1ccc2c(c1)OCO2 (stereo partly shown) [Z1877] | Y | – | – | – | – | –
Cc1oc(CNc2ncnc3[nH]c4ccccc4c23)cc1C(=O)O [Z3124] | Y | – | – | – | – | –
CC(F)(F)c1cncc(C(=O)NC(Cc2cncc(Br)c2)C(=O)O)c1 (stereo not shown) [Z3140] | Y | – | – | – | – | –
O=C(NS(=O)(=O)Cc1ccc(Br)c(F)c1)c1cnn2ccccc12 [Z3209] | Y | – | – | – | – | –
